# Source: patent publication US20220408724A1, “METHOD FOR CONTROLLING METABOLISM OF BRANCHED FATTY ACID” (KAO CORPORATION, priority 2019, published 2022)
# Values joined by “and” are separate entries in the source; they are usually repeats but may differ in a detail not shown here. Identical values can stand only once.
# Legend:
# Assay type in all cases: cell-based
# [1] = tested on: Escherichia coli (NBRC3972); assay: Suppression of metabolite 4-methylhexanoic acid from 14-methylhexadecanoic acid
# Protocol: After culture on fabric prepared in the same manner as in the above (1), 3 ml of methanol was added, and extraction was carried out under ultrasonic irradiation for 30 minutes (20° C.). The extraction liquid was mixed with (a 1000 ppm methanol solution of) an ADAM reagent of Funakoshi Co., Ltd. at 1:1 (volume ratio) and left overnight under room temperature and dark place conditions. After that, 4-methyl-3-hexenoic acid as a metabolite from 14-methylhexadecanoic acid was quantified by HPLC. The quantification conditions are as follows.
# (§1) The production amount of 4-methyl-3-hexenoic acid after culture on the fabric to which each metabolism controlling agent was added was quantified, and the ratio of the production amount to that of 4-methyl-3-hexenoic acid in the case of adding no metabolism controlling agent (control) was calculated as a metabolite suppression rate (%). The higher a numerical value thereof is, the more the metabolism is suppressed. Note that the metabolite suppression rate was determined by the following formula:
# Metabolite suppression rate(%)=100×[(D−C)/D] • C: production amount of metabolite of example or comparative example (μg/fabric g) • D: production amount of metabolite of control (μg/fabric g)
# (§2) The metabolism of 14-methylhexadecanoic acid by bacteria of the genus Escherichia (Escherichia coli) was tested in the same manner as in example 1.
# (§3) In this example, Escherichia coli (NBRC3972) was used as a microorganism.
# (§4) Further, in this example, a bacterial suspension of 10^6 (CFU/ml) prepared by using an NB liquid medium diluted to 1/10 with ion exchange water was used as a bacterial suspension.
# Further, in this example, 4-methylhexanoic acid was quantified as a metabolite from 14-methylhexadecanoic acid, and the metabolite suppression rate was determined in the same manner as in example 1.
# (§5) Note that, in this example, C12OH (1-dodecanol) was used as the metabolism controlling agent.
# [2] = tested on: Escherichia coli (NBRC3972); assay: Measurement of viable bacterial count on fabric
# Protocol: (§6) After culture on fabric prepared in the same manner as in the above (1), 9 mL of an LP diluent (manufactured by NIHON PHARMACEUTICAL CO., LTD.) was added, and the extraction of the bacteria was carried out under ultrasound for 10 minutes. The extraction liquid was poured and mixed to an SCD-LP agar medium (NIHON PHARMACEUTICAL CO., LTD.), and culture was thereafter carried out at 37° C.; for a day. The number of colonies obtained on each piece of the fabric was counted, and a common logarithm value thereof was measured as the viable bacterial count. […] In addition, the […], the more the viable bacterial count of the microorganism is maintained.
# as §2, §3, §4, §5
# [3] = tested on: Moraxella osloensis; assay: Examination example: measurement of viable bacterial count; details: single agent 100 μg/fabric g
# Protocol: as §6
# [4] = tested on: Staphylococcus aureus; assay: Measurement of viable bacterial count on fabric
# Protocol: as §6
# The metabolism of 14-methylhexadecanoic acid by bacteria of the genus Staphylococcus (Staphylococcus aureus) was tested in the same manner as in example 1.
# In this example, Staphylococcus aureus (strain isolated from clothing) was used as a microorganism.
# Further, in this example, a bacterial suspension of 10^7 (CFU/ml) prepared by using an NB liquid medium diluted to 1/10 with ion exchange water was used as a bacterial suspension.
# as §5
# [5] = tested on: Escherichia coli (NBRC3972); assay: Suppression of metabolism of 14-methylhexadecanoic acid on cotton fabric
# Protocol: (§7) A methanol solution in which 14-methylhexadecanoic acid (SIGMA-ALDRICH) was dissolved was added dropwise to 3 cm×3 cm pieces of sterilized plain-weave cotton fabric to make it adhered to the fabric. The adhesion amount of 14-methylhexadecanoic acid was set to 10 μg per piece of the plain-weave cotton fabric (100 μg/fabric g).
# (§8) Further, a methanol solution in which each metabolism controlling agent was dissolved was prepared and added dropwise to the fabric to which 14-methylhexadecanoic acid adhered, and it was thereafter dried for an hour. This fabric was placed in a sterilized screw tube bottle No. 3 (Maruemu Corporation) and 100 μl of the bacterial suspension was inoculated thereto, and culture was carried out under 37° C.; conditions for 21 hours.
# (§9) 3 ml of methanol was added to the screw tube bottle after culture, and extraction was carried out under ultrasonic irradiation for 30 minutes (20° C.). The extraction liquid was mixed with a (trimethylsilyl)diazomethane hexane solution (FUJIFILM Wako Pure Chemical Corporation) at 9:1 (volume ratio) and left overnight under room temperature and dark place conditions. After that, 14-methylhexadecanoic acid remaining on the fabric was quantified by GC. The quantification conditions for GC are as follows. • GC: Agilent 7890A • GC column: Agilent DB-1 30 m×250 μm×0.25 μm • Temperature rise condition: 50° C. (held for 3 minutes)-(10° C./min)-300° C. (held for 5 minutes) • Sample injection volume: 1 μl • Split ratio: 1:12 • Detector: FID
# as §1, with “residual” for “production”, “14-methylhexadecanoic” for “4-methyl-3-hexenoic”, “the” for “each”, “metabolism” for “metabolite”
# (§10) Metabolism suppression rate(%)=[1−(100−A)/(100−B)]×100 • A: residual amount of 14-methylhexadecanoic acid of example or comparative example (μg/fabric g) • B: residual amount of 14-methylhexadecanoic acid of control (μg/fabric g)
# as §2, §3, §4, §5
# [6] = tested on: Micrococcus aloeverae; assay: as above
# Protocol: as §7, §8, §9
# as §1, with “residual” for “production”, “14-methylhexadecanoic” for “4-methyl-3-hexenoic”, “the” for “each”, “metabolism” for “metabolite”
# as §10
# The metabolism of 14-methylhexadecanoic acid by bacteria of the genus Micrococcus was tested in the same manner as in example 1.
# In this example, Micrococcus aloeverae (strain isolated from clothing) was used as a microorganism.
# Further, in this example, a bacterial suspension of 10^7 (CFU/ml) prepared by using an SCD liquid medium (NIHON PHARMACEUTICAL CO., LTD.) diluted to 1/10 with ion exchange water was used as a bacterial suspension.
# as §5
# [7] = tested on: Rhodotorula mucilaginosa; assay: as above; details: agent 250 μg/fabric g
# Protocol: as §7, §8, §9
# as §1, with “residual” for “production”, “14-methylhexadecanoic” for “4-methyl-3-hexenoic”, “the” for “each”, “metabolism” for “metabolite”
# as §10
# The metabolism of 14-methylhexadecanoic acid by yeast of the genus Rhodotorula was tested in the same manner as in example 1.
# In this example, Rhodotorula mucilaginosa (strain isolated from clothing) was used as a microorganism.
# Further, in this example, the bacteria were precultured under conditions of a PDA agar medium (Difco), 30° C.; and 48 hours.
# Further, in this example, a bacterial suspension of 10^7 (CFU/ml) prepared by using a PDB liquid medium (Difco) diluted to 1/10 with ion exchange water was used as a bacterial suspension.
compound,measurement,setting,value
"CCCCCCCCCCCCO [Example C12OH, 1-dodecanol]",Metabolite suppression rate (%),[1]; agent 500 μg/fabric g,74% and 41%
same,Metabolite suppression rate (%),[1]; agent 1000 μg/fabric g,93% and 65%
same,Metabolite suppression rate (%),[1]; agent 2000 μg/fabric g,77%
same,Metabolite suppression rate (%),[1]; agent 3000 μg/fabric g,80%
same,Bacterial count (Log (cfu/fabric cm^2)),[2]; agent 500 μg/fabric g,6.3 Log (cfu/fabric cm^2)
same,Bacterial count (Log (cfu/fabric cm^2)),[2]; agent 1000 μg/fabric g,6.3 Log (cfu/fabric cm^2) and 6.4 Log (cfu/fabric cm^2)
same,Bacterial count (Log (cfu/fabric cm^2)),[2]; agent 2000 μg/fabric g,6.3 Log (cfu/fabric cm^2)
same,Bacterial count (Log (cfu/fabric cm^2)),[2]; agent 3000 μg/fabric g,6.3 Log (cfu/fabric cm^2)
same,Viable bacterial count (Log (cfu/fabric cm^2)),[3],6.2 Log (cfu/fabric cm^2)
same,Bacterial count (Log (cfu/fabric cm^2)),[4]; agent 100 μg/fabric g,6.4 Log (cfu/fabric cm^2)
same,Bacterial count (Log (cfu/fabric cm^2)),[4]; agent 500 μg/fabric g,6.2 Log (cfu/fabric cm^2)
same,Metabolism suppression rate (%),[5]; agent 500 μg/fabric g,39% and 21%
same,Metabolism suppression rate (%),[5]; agent 1000 μg/fabric g,90% and 61%
same,Metabolism suppression rate (%),[5]; agent 2000 μg/fabric g,66%
same,Metabolism suppression rate (%),[5]; agent 3000 μg/fabric g,73%
same,Metabolism suppression rate (%),[6]; agent 100 μg/fabric g,16.7%
same,Metabolism suppression rate (%),[6]; agent 250 μg/fabric g,73% and 55.0%
same,Metabolism suppression rate (%),[6]; agent 500 μg/fabric g,85.8%
same,Metabolism suppression rate (%),[6]; agent 1000 μg/fabric g,86.9%
same,Metabolism suppression rate (%),[7],68%
